Source: the NIST ThermoML archive (doi:10.1021/je034253u)
Numbers after ± are expanded uncertainties.

Experiment: excess molar enthalpy (molar enthalpy of mixing); xn = mol fraction of the nth substance listed
Conditions: Liquid, Flow calorimetry

## CC1CO1 (stereo not drawn) [methyloxirane] + CCCC(C)C
323.15 K, 1140 kPa, x1 = 0.0895
  excess molar enthalpy: 0.0966 ± 0.0012 kcal/mol
323.15 K, 1140 kPa, x1 = 0.1719
  excess molar enthalpy: 0.1678 ± 0.00167 kcal/mol
323.15 K, 1140 kPa, x1 = 0.2479
  excess molar enthalpy: 0.2199 ± 0.00191 kcal/mol
323.15 K, 1140 kPa, x1 = 0.3184
  excess molar enthalpy: 0.2548 ± 0.00215 kcal/mol
323.15 K, 1140 kPa, x1 = 0.3838
  excess molar enthalpy: 0.2782 ± 0.00239 kcal/mol
323.15 K, 1140 kPa, x1 = 0.4447
  excess molar enthalpy: 0.2909 ± 0.00239 kcal/mol
323.15 K, 1140 kPa, x1 = 0.5015
  excess molar enthalpy: 0.2964 ± 0.00239 kcal/mol
323.15 K, 1140 kPa, x1 = 0.5547
  excess molar enthalpy: 0.2945 ± 0.00239 kcal/mol
323.15 K, 1140 kPa, x1 = 0.6045
  excess molar enthalpy: 0.2873 ± 0.00239 kcal/mol
323.15 K, 1140 kPa, x1 = 0.6514
  excess molar enthalpy: 0.2763 ± 0.00239 kcal/mol
323.15 K, 1140 kPa, x1 = 0.6954
  excess molar enthalpy: 0.2591 ± 0.00215 kcal/mol
323.15 K, 1140 kPa, x1 = 0.737
  excess molar enthalpy: 0.2397 ± 0.00215 kcal/mol
323.15 K, 1140 kPa, x1 = 0.7763
  excess molar enthalpy: 0.2177 ± 0.00191 kcal/mol
323.15 K, 1140 kPa, x1 = 0.8134
  excess molar enthalpy: 0.1924 ± 0.00191 kcal/mol
323.15 K, 1140 kPa, x1 = 0.8486
  excess molar enthalpy: 0.165 ± 0.00167 kcal/mol
323.15 K, 1140 kPa, x1 = 0.882
  excess molar enthalpy: 0.135 ± 0.00143 kcal/mol
323.15 K, 1140 kPa, x1 = 0.9137
  excess molar enthalpy: 0.103 ± 0.00143 kcal/mol
323.15 K, 1140 kPa, x1 = 0.9439
  excess molar enthalpy: 0.0691 ± 0.0012 kcal/mol
323.15 K, 1140 kPa, x1 = 0.9726
  excess molar enthalpy: 0.0332 ± 0.0012 kcal/mol

## FC(F)C(F)(F)F [pentafluoroethane] + FCF
308.15 K, 5130 kPa, x2 = 0.088
  excess molar enthalpy: 0.00598 ± 0.000956 kcal/mol
308.15 K, 5130 kPa, x2 = 0.1692
  excess molar enthalpy: 0.012 ± 0.000956 kcal/mol
308.15 K, 5130 kPa, x2 = 0.2444
  excess molar enthalpy: 0.0174 ± 0.000956 kcal/mol
308.15 K, 5130 kPa, x2 = 0.3142
  excess molar enthalpy: 0.0227 ± 0.000956 kcal/mol
308.15 K, 5130 kPa, x2 = 0.3792
  excess molar enthalpy: 0.0272 ± 0.000956 kcal/mol
308.15 K, 5130 kPa, x2 = 0.4399
  excess molar enthalpy: 0.0308 ± 0.000956 kcal/mol
308.15 K, 5130 kPa, x2 = 0.4967
  excess molar enthalpy: 0.0337 ± 0.000956 kcal/mol
308.15 K, 5130 kPa, x2 = 0.5499
  excess molar enthalpy: 0.0359 ± 0.000956 kcal/mol
308.15 K, 5130 kPa, x2 = 0.5999
  excess molar enthalpy: 0.037 ± 0.000956 kcal/mol
308.15 K, 5130 kPa, x2 = 0.647
  excess molar enthalpy: 0.0375 ± 0.000956 kcal/mol
308.15 K, 5130 kPa, x2 = 0.6913
  excess molar enthalpy: 0.037 ± 0.000956 kcal/mol
308.15 K, 5130 kPa, x2 = 0.7332
  excess molar enthalpy: 0.0359 ± 0.000956 kcal/mol
308.15 K, 5130 kPa, x2 = 0.7729
  excess molar enthalpy: 0.0339 ± 0.000956 kcal/mol
308.15 K, 5130 kPa, x2 = 0.8105
  excess molar enthalpy: 0.0311 ± 0.000956 kcal/mol
308.15 K, 5130 kPa, x2 = 0.8461
  excess molar enthalpy: 0.0275 ± 0.000956 kcal/mol
308.15 K, 5130 kPa, x2 = 0.88
  excess molar enthalpy: 0.0232 ± 0.000956 kcal/mol
308.15 K, 5130 kPa, x2 = 0.9122
  excess molar enthalpy: 0.0182 ± 0.000956 kcal/mol
308.15 K, 5130 kPa, x2 = 0.9428
  excess molar enthalpy: 0.0124 ± 0.000956 kcal/mol
308.15 K, 5130 kPa, x2 = 0.9721
  excess molar enthalpy: 0.00621 ± 0.000956 kcal/mol
